A word on the Kd: it is a measure of binding affinity in units of concentration.

The values that follow come from patent US10934274B2, “Quinoline derivatives as TAM RTK inhibitors” (Qurient Co., Ltd., priority 2015, dated 2021).

Molecules are shown by their SMILES.

Experiment [1] concerns the target T1, Met (Homo sapiens, UniProt P08581).
T1 construct: purchased Life Technologies
In words: LanthaScreen Eu kinase binding assay, Met. Particulars: Tracer 236, read-out: cMet kinase binding activity (Kd). For orientation: In TR-FRET formats the signal depends on donor and acceptor labels being close together.

Experiment [2] has as its target T2, Mer (Homo sapiens, UniProt Q12866).
T2 construct: purchased Life Technologies
T2 sequence (Q12866 21-999): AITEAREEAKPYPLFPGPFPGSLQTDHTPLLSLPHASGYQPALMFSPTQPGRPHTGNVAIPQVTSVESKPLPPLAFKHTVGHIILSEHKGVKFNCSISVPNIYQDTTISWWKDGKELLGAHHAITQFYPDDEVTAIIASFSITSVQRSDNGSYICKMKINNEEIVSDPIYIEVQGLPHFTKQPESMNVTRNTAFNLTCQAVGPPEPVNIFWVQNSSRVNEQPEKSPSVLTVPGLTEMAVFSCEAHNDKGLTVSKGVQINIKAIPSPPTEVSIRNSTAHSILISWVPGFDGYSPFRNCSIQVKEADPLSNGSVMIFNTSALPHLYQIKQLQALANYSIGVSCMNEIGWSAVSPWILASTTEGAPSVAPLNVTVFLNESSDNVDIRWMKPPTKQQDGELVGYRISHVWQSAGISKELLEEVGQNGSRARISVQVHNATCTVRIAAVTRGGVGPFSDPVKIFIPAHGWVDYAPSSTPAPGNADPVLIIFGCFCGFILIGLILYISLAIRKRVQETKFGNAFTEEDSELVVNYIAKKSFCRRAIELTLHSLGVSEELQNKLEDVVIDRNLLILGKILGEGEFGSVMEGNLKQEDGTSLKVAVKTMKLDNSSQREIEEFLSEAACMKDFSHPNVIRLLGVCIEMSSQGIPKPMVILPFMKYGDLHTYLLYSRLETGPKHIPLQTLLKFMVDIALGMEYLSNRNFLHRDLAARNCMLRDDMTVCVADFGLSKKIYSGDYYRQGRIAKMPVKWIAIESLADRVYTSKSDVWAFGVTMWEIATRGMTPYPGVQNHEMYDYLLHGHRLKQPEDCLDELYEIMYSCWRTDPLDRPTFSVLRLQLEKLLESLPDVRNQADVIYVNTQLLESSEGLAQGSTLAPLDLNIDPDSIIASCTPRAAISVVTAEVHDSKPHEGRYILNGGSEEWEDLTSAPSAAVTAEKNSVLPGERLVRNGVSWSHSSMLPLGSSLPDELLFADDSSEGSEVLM
Briefly: LanthaScreen Eu kinase binding assay, Mer. Conditions: Tracer 236.

Experiment [3] has as its target T3, Axl (Homo sapiens, UniProt P30530).
T3 construct: purchased Life Technologies
T3 sequence (P30530 26-894): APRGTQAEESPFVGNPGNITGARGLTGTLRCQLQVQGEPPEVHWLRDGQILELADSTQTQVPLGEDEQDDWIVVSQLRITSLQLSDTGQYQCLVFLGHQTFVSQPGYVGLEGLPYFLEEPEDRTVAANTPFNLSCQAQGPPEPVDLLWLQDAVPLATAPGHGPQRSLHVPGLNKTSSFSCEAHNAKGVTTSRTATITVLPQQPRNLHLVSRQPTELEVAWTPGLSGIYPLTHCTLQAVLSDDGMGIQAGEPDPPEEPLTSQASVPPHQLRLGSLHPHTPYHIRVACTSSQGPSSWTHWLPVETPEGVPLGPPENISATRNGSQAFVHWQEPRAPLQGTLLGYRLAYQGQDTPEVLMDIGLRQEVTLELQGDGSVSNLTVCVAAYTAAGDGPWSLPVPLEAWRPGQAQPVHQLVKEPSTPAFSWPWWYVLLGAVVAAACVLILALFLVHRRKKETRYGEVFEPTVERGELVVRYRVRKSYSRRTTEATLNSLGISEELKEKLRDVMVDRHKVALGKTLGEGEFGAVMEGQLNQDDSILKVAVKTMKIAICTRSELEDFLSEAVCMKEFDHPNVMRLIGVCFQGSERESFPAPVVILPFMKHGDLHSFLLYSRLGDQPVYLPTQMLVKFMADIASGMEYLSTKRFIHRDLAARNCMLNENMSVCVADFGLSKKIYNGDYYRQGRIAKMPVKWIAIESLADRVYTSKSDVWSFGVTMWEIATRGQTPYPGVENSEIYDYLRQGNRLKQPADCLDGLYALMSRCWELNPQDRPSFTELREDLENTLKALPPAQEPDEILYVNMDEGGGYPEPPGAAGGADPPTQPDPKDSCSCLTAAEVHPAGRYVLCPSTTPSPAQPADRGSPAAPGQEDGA
In words: LanthaScreen Eu kinase binding assay, Axl. Conditions: Tracer 236.

T1 sequence (P08581 25-1390): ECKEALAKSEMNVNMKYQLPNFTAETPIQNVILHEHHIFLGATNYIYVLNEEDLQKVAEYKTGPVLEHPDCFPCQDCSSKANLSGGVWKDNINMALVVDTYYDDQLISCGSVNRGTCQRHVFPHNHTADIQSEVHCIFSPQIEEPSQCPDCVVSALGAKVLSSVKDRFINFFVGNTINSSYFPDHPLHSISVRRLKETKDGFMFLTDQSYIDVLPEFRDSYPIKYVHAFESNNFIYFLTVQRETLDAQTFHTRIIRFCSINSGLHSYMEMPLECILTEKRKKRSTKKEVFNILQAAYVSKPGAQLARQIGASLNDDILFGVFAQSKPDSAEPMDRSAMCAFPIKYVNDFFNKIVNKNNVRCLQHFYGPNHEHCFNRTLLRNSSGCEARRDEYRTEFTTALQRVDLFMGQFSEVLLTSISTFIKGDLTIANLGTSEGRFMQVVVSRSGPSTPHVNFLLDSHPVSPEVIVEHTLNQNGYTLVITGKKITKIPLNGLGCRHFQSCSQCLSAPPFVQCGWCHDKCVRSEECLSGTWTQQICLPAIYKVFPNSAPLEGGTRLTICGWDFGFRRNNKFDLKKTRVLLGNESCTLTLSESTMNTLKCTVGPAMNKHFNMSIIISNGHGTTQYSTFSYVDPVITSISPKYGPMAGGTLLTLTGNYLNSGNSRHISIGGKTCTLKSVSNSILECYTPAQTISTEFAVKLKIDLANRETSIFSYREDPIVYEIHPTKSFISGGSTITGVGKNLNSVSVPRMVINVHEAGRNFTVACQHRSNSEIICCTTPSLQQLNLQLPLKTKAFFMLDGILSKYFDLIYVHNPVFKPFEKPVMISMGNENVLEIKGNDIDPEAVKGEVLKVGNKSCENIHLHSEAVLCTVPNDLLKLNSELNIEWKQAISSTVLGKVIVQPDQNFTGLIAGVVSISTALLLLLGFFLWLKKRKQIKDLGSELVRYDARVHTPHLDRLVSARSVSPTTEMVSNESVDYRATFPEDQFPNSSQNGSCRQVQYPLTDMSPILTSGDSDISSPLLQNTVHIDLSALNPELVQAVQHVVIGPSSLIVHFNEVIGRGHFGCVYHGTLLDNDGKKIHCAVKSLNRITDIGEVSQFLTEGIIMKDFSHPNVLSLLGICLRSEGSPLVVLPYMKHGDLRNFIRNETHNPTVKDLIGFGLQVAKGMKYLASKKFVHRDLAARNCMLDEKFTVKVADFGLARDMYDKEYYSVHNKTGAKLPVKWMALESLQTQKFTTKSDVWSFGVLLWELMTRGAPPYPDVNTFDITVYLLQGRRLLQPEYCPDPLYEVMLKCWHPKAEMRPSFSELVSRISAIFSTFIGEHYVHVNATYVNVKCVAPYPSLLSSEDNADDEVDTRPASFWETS

Take `CCOc1cn(CC(C)=O)nc1C(=O)Nc1ccc(Oc2ccnc3cc(OC)c(OC)cc23)cn1` [Compound 66]: the equilibrium dissociation constant (Kd) in experiment [1] was 100 to 1000 nM; in experiment [2], less than 100 nM; in experiment [3] it was less than 100 nM.
Consider `CCOc1cn(C(C)(C)C(=O)NC)nc1C(=O)Nc1ccc(Oc2ccnc3cc(OC)c(OC)cc23)cn1` [Compound 68], for which the Kd is 100 to 1000 nM in experiment [1], less than 100 nM in experiment [2] and less than 100 nM in experiment [3].
Consider `CCOc1cn(-c2cnccc2CN(C)C)nc1C(=O)Nc1ccc(Oc2ccnc3cc(OC)c(OC)cc23)cn1` [Compound 73], for which the Kd is 100 to 1000 nM in experiment [1], less than 100 nM in experiment [2] and less than 100 nM in experiment [3].
Regarding `CCOc1cn(C2CCN(C)C2)nc1C(=O)Nc1ccc(Oc2ccnc3cc(OC)c(OC)cc23)cc1F` (stereo not drawn) [Compound 212], the Kd in experiment [1], in experiment [2] and in experiment [3] was 100 to 1000 nM each time.
Take `CCOc1cnn(C2CCCN(C)C2)c1C(=O)Nc1ccc(Oc2ccnc3cc(OC)c(OC)cc23)cc1F` (stereo not drawn) [Compound 213]: the equilibrium dissociation constant (Kd) is no less than 1000 nM in experiment [1], 100 to 1000 nM in experiment [2] and no less than 1000 nM in experiment [3].
Regarding `CCOc1cn(Cc2cnccn2)nc1C(=O)Nc1ccc(Oc2ccnc3cc(OC)c(OC)cc23)cc1F` [Compound 215], the dissociation constant (Kd) in experiment [1], in experiment [2] and in experiment [3] was less than 100 nM throughout.
As to `CCOc1cn(C2CCCN(C(C)=O)C2)nc1C(=O)Nc1ccc(Oc2ccnc3cc(OC)c(OC)cc23)cc1F` (stereo not drawn) [Compound 224], the results for the Kd in experiment [1], in experiment [2] and in experiment [3] were 100 to 1000 nM, less than 100 nM and less than 100 nM, respectively.
`CCOc1cn(C2CCCN(C(N)=O)C2)nc1C(=O)Nc1ccc(Oc2ccnc3cc(OC)c(OC)cc23)cc1F` (stereo not drawn) [Compound 225]: the Kd in experiment [1] is 100 to 1000 nM; in experiment [2] it was less than 100 nM; in experiment [3], less than 100 nM.
`CCOc1cn(Cc2cnccc2C)nc1C(=O)Nc1ccc(Oc2ccnc3cc(OC)c(OC)cc23)cc1F` [Compound 226]: the Kd in experiment [1], in experiment [2] and in experiment [3] was less than 100 nM in each case.
With `CCOc1cn(-c2cnccc2C(C)(O)CO)nc1C(=O)Nc1ccc(Oc2ccnc3cc(OC)c(OC)cc23)cc1F` (stereo not drawn) [Compound 227], the dissociation constant (Kd) in experiment [1], in experiment [2] and in experiment [3] was less than 100 nM each time.
As for `CCOc1cn(-c2nccnc2C(C)(O)CO)nc1C(=O)Nc1ccc(Oc2ccnc3cc(OC)c(OC)cc23)cc1F` (stereo not drawn) [Compound 229], the Kd in experiment [1], in experiment [2] and in experiment [3] was less than 100 nM throughout.
Take `CCOc1cn(-c2cnc(N)nc2)nc1C(=O)Nc1ccc(Oc2ccnc3cc(OC(C)C)c(OC)cc23)cc1F` [Compound 230]: the dissociation constant (Kd) in experiment [1] is no less than 1000 nM; in experiment [2], less than 100 nM; in experiment [3], less than 100 nM.
In the case of `CCOc1cn(-c2cnccc2CO)nc1C(=O)Nc1ccc(Oc2ccnc3cc(OC(C)C)c(OC)cc23)cc1F` [Compound 231], the Kd in experiment [1] is 100 to 1000 nM; in experiment [2] it was less than 100 nM; in experiment [3] it was less than 100 nM.
Regarding `CCOc1cn(-c2cnccc2CO)nc1C(=O)Nc1ccc(Oc2ccnc3cc(OC)c(OC(F)(F)F)cc23)cn1` [Compound 233], the dissociation constant Kd in experiment [1] is no less than 1000 nM; in experiment [2] it was less than 100 nM; in experiment [3], less than 100 nM.
Regarding `CCC(C)Oc1cc2nccc(Oc3ccc(NC(=O)c4nn(-c5cccnc5)cc4OCC(F)(F)F)nc3)c2cc1OC` (stereo not drawn) [Compound 234], the values for the Kd in experiment [1], in experiment [2] and in experiment [3] were 100 to 1000 nM, less than 100 nM and less than 100 nM, respectively.
As to `COc1cc2nccc(Oc3ccc(NC(=O)c4nn(-c5cnc(Cl)cn5)cc4OCC(F)(F)F)nc3)c2cc1OC` [Compound 236], the Kd in experiment [1], in experiment [2] and in experiment [3] was less than 100 nM in each case.
For `COc1cc2nccc(Oc3ccc(NC(=O)c4nn(-c5cnc(N)nc5)cc4OCC(F)(F)F)nc3)c2cc1OC` [Compound 237], the Kd in experiment [1], in experiment [2] and in experiment [3] was less than 100 nM in each case.
As for `COc1cc2nccc(Oc3ccc(NC(=O)c4nn(-c5cccnc5)cc4OCC4CC4)nc3)c2cc1OC(F)(F)F` [Compound 239], the Kd in experiment [1] is 100 to 1000 nM; in experiment [2] it was 100 to 1000 nM; in experiment [3], less than 100 nM.
Take `COc1cc2nccc(Oc3ccc(NC(=O)c4nn(-c5cnc(N)nc5)cc4OCC4CC4)nc3)c2cc1OC` [Compound 240]: the Kd in experiment [1], in experiment [2] and in experiment [3] was less than 100 nM each time.
For the compound `CCOc1cn(-c2cnc(N)nc2)nc1C(=O)Nc1ccc(Oc2ccnc3cc(OC)c(OC(F)(F)F)cc23)cn1` [Compound 241], the results for the dissociation constant Kd in experiment [1], in experiment [2] and in experiment [3] were no less than 1000 nM, less than 100 nM and less than 100 nM, respectively.
For the compound `CCOc1cn(-c2cnc(N)nc2)nc1C(=O)Nc1ccc(Oc2ccnc3cc(OC)c(OC(F)(F)F)cc23)cc1F` [Compound 242], the dissociation constant (Kd) in experiment [1], in experiment [2] and in experiment [3] was no less than 1000 nM throughout.
With `COc1cc2c(Oc3ccc(NC(=O)c4nn(-c5cnc(N)nc5)cc4OCC(F)(F)F)c(F)c3)ccnc2cc1OC(C)C` [Compound 243], the Kd in experiment [1], in experiment [2] and in experiment [3] was less than 100 nM throughout.
As to `COc1cc2nccc(Oc3ccc(NC(=O)c4nn(-c5ccc(OC(F)(F)F)cc5Cl)cc4OCC4CC4)nc3)c2cc1OC` [Compound 244], the Kd in experiment [1], in experiment [2] and in experiment [3] was less than 100 nM each time.
For the compound `COc1cc2c(Oc3ccc(NC(=O)c4nn(-c5cnc(N)cn5)cc4OCC(F)(F)F)c(F)c3)ccnc2cc1OC(C)C` [Compound 246], the Kd in experiment [1] was no less than 1000 nM; in experiment [2] it was less than 100 nM; in experiment [3], less than 100 nM.
For `COc1cc2nccc(Oc3ccc(NC(=O)c4nn(-c5cnccc5C(F)(F)F)cc4OCC4CC4)nc3)c2cc1OC` [Compound 247], the equilibrium dissociation constant (Kd) in experiment [1], in experiment [2] and in experiment [3] was less than 100 nM each time.
As to `COc1cc2nccc(Oc3ccc(NC(=O)c4nn(-c5cnc(N)cn5)cc4OCC(F)(F)F)nc3)c2cc1OC` [Compound 248], the Kd in experiment [1], in experiment [2] and in experiment [3] was less than 100 nM throughout.
In the case of `COc1cc2nccc(Oc3ccc(NC(=O)c4nn(-c5cnc(N)cn5)cc4OCC4CC4)nc3)c2cc1OC` [Compound 249], the Kd in experiment [1], in experiment [2] and in experiment [3] was less than 100 nM throughout.
As for `COc1cc2nccc(Oc3ccc(NC(=O)c4nn(-c5cnc(N)cn5)cc4OCC(F)(F)F)c(F)c3)c2cc1OC` [Compound 252], the Kd was no less than 1000 nM in experiment [1], less than 100 nM in experiment [2] and less than 100 nM in experiment [3].
Regarding `COc1cc2c(Oc3ccc(NC(=O)c4nn(-c5cnc(N)cn5)cc4OCC(F)(F)F)nc3)ccnc2cc1OC(C)C` [Compound 253], the Kd in experiment [1], in experiment [2] and in experiment [3] was less than 100 nM each time.
In the case of `COc1cc2nccc(Oc3ccc(NC(=O)c4nn(-c5cnc(N)nc5)cc4OC(F)F)nc3)c2cc1OC` [Compound 254], the Kd was no less than 1000 nM in experiment [1], less than 100 nM in experiment [2] and less than 100 nM in experiment [3].
In the case of `COc1cc2nccc(Oc3ccc(NC(=O)c4nn(-c5cccnc5)cc4OCC4CC4)nc3)c2cc1OC` [Compound 255], the Kd in experiment [1], in experiment [2] and in experiment [3] was less than 100 nM in each case.
